Laboratory results reported in PubChem BioAssay (NCI).
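Each compound was tested at five concentrations against cells in 96-well plates for 48 hours. TGI: total growth inhibition.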

Legend:
Assay in all cases: NCI anticancer screen, dose series, 48 h
[1] = system: TK-10 renal
[2] = system: HT29 colon
[3] = system: COLO 205 colon
[4] = system: RPMI-8226 leukemia
[5] = system: HOP-92 NSCLC
[6] = system: SF-539 CNS
[7] = system: DMS 273 small cell lung
[8] = system: SNB-19 CNS
[9] = system: SN12C renal
[10] = system: SR leukemia
[11] = system: LOX IMVI melanoma
[12] = system: KM12 colon
[13] = system: UACC-257 melanoma
[14] = system: MALME-3M melanoma
[15] = system: SK-MEL-28 melanoma
[16] = system: HCT-116 colon
[17] = system: SK-MEL-5 melanoma
[18] = system: SNB-78 CNS
[19] = system: K-562 leukemia
[20] = system: MOLT-4 leukemia
[21] = system: HL-60(TB) leukemia
[22] = system: KM20L2 colon
[23] = system: A549 NSCLC
[24] = system: OVCAR-3 ovarian
[25] = system: NCI-H23 lung
[26] = system: DMS 114 small cell lung
[27] = system: OVCAR-5 ovarian
[28] = system: SF-295 CNS
[29] = system: ACHN renal
[30] = system: NCI-H460 lung
[31] = system: U251 CNS
[32] = system: SK-OV-3 ovarian
[33] = system: NCI-H226 lung
[34] = system: SW-620 colon
[35] = system: M19-MEL melanoma
[36] = system: 786-0 renal
[37] = system: SK-MEL-2 melanoma
[38] = system: HOP-18 NSCLC
[39] = system: DLD-1 colon
[40] = system: SNB-75 CNS
[41] = system: LXFL 529 NSCLC
[42] = system: CAKI-1 renal
[43] = system: OVCAR-8 ovarian
[44] = system: M14 melanoma
[45] = system: CCRF-CEM leukemia
[46] = system: NCI-H522 lung
[47] = system: HOP-62 NSCLC
[48] = system: UO-31 renal
[49] = system: RXF 393 renal
[50] = system: OVCAR-4 ovarian
[51] = system: SF-268 CNS
[52] = system: HCT-15 colon
[53] = system: UACC-62 melanoma
[54] = system: EKVX NSCLC
[55] = system: IGROV1 ovarian
[56] = system: DU-145 prostate
[57] = system: MCF7 breast
[58] = system: BT-549 breast
[59] = system: MDA-N
[60] = system: NCI/ADR-RES ovarian
[61] = system: MDA-MB-435
[62] = system: T-47D breast
[63] = system: PC-3 prostate
[64] = system: HCC-2998 colon
[65] = system: MDA-MB-231 breast
[66] = system: A498 renal
[67] = system: HS 578T breast

Measured: TGI

O=C(/C=C/c1ccc[nH]1)c1ccccc1
not listed: [54] | [55] | [56] | [57] | [58] | [59] | [60] | [61] | [62] | [63] | [64] | [65] | [66] | [67]
> 100 µM: all other assays above

NNC(=O)C(O)C(O)C(O)CO (stereo not given)
not listed: [6] | [7] | [18] | [20] | [22] | [26] | [35] | [38] | [39] | [41]
> 100 µM: all other assays above
